# Data reported in paper PMC7767381, “Exploring the Anti-Cancer Mechanism of Novel 3,4′-Substituted Diaryl Guanidinium Derivatives” (Pharmaceuticals, 2020).
# Columns and labels:
# [1] = tested on: HL-60 cells; experiment: alamarBlue cell viability assay, HL-60; format: cell-based; details: Homo sapiens, HL-60, 72 h, alamarBlue, 72 h; read-out: HL-60 IC50 ± SEM
# Excerpt: (§1) Cell viability and proliferation assays were used to evaluate the in vitro cytotoxicity of all synthesised compounds in a variety of different cancer cell lines using the alamarBlue® viability assay and the results are presented in Table 1 and Table 2. The sensitivity of cancer cells to drugs can often be compromised by PIK3CA, Ras and BRAF mutations. To determine whether such mutations are critical to the efficacy of our new compounds we tested them in a range of cancerous cell lines expressing different mutations. Firstly, we used the HL-60 (human promyelocytic leukaemia, NRas mutated) cell line for general cytotoxicity screening of all compounds. […] Lastly, toxicity against MCF-10A, which is a non-tumorigenic epithelial cell line, was also assessed for one of the most promising compounds (4). The graphs representing the viability results with the HL-60, MCF-7, HeLa, HCT-116, and HKH-2 cancer cell lines for compound 1 and derivatives 2, 3, and 4 are shown in Figures S7–S10 (ESI).
# Cells were counted and seeded in 96-well plates at a density of 2 × 10^5 cells/mL for HL-60, 2.5 × 10^4 cells/mL for MCF-7, MCF10A and HeLa, 1 × 10^5 cells/mL for HCT116 and HKH-2, all of them in their respective media. The 96-well plates were then treated with a 1:100 dilution of stock concentrations of drugs or EtOH (1% v/v)/DMSO (0.1% v/v) as vehicle control in triplicate. Three blank wells containing 200 µL RPMI with no cells were also set-up as blanks. After a 72 h incubation, 20 µL of alamarBlue was added to each well. The plates were incubated in darkness at 37 °C for 4–5 h using a Molecular Devices microplate reader, the fluorescence (F) was then read at an excitation wavelength of 544 nm and an emission wavelength of 590 nm. Cell viability was then determined by subtracting the mean blank fluorescence (Fb) from the treated sample fluorescence (Fs) and expressing this as a percentage of the fluorescence of the blanked vehicle control (Fc). […] The results were then plotted as a nonlinear regression, sigmoidal dose-response curves on Prism, from which the IC50 value for each drug was determined. […]
# Pharmacy, TCD. It was maintained in Roswell Park Memorial Institute (RPMI) 1640 medium with stable glutamate (GlutaMax I) supplemented with 10% (v/v) fetal bovine serum (FBS), 1% (v/v) penicillin/ streptomycin (pen-strep) and 2 mM L-glutamine. […]
# 4.4. AlamarBlue ® Cell Viability Assay
# Cells were counted and seeded in 96 well plates at a density of 2 × 10^5 cells/mL for HL-60, 2.5× 10^4 cells/mL for MCF-7, MCF10A and HeLa, 1 × 10^5 cells/mL for HCT116 and HKH-2, all of them in their respective media. The 96 well plates were then treated with a 1:100 dilution of stock concentrations of drugs or EtOH (1% v/v)/DMSO (0.1% v/v) as vehicle control in triplicate.
# Three blank wells containing 200 µL media with no cells were also set-up as blanks. After a 72 h incubation, 20 µL of AlamarBlue was added to each well. The plates were incubated in darkness at 37 °C for 4-5 h. Using a Molecular Devices microplate reader, the fluorescence (F) was then read at an excitation wavelength of 544 nm and an emission wavelength of 590 nm.
# Cell viability was then determined by subtracting the mean blank fluorescence (Fb) from the treated sample fluorescence (Fs) and expressing this as a percentage of the fluorescence of the blanked vehicle control (Fc). […] The results were […]
# then plotted as a nonlinear regression, sigmoidal dose-response curves on Prism, from which the IC50 value for each drug was determined.
# Fs − Fb x 100 = % Cell Viability
# 60 cell line in a dose-dependent manner.
# (1 picture or pasted object on this page, not shown here)
# [2] = tested on: HeLa cells; experiment: alamarBlue cell viability assay, HeLa; format: cell-based; details: Homo sapiens, 72 h, read-out: HeLa IC50 ± SEM
# Excerpt: as §1
# Cells were counted and seeded in 96-well plates at a density of 2 × 10^5 cells/mL for HL-60, 2.5 × 10^4 cells/mL for MCF-7, MCF10A and HeLa, 1 × 10^5 cells/mL for HCT116 and HKH-2, all of them in their respective media. The 96-well plates were then treated with a 1:100 dilution of stock concentrations of drugs or EtOH (1% v/v)/DMSO (0.1% v/v) as vehicle control in triplicate. Three blank wells containing 200 µL RPMI with no cells were also set-up as blanks. After a 72 h incubation, 20 µL of alamarBlue was added to each well. The plates were incubated in darkness at 37 °C for 4–5 h using a Molecular Devices microplate reader, the fluorescence (F) was then read at an excitation wavelength of 544 nm and an emission wavelength of 590 nm. Cell viability was then determined by subtracting the mean blank fluorescence (Fb) from the treated sample fluorescence (Fs) and expressing this as a percentage of the fluorescence of the blanked vehicle control (Fc). […] The results were then plotted as a nonlinear regression, sigmoidal dose-response curves on Prism, from which the IC50 value for each drug was determined.
# The MCF-7 (human breast tumour) cell line was obtained from Prof. Mary Meegan, School of Pharmacy, TCD. It was maintained in Roswell Park Memorial Institute (RPMI) 1640 medium with stable glutamate (GlutaMax I) supplemented with 10% (v/v) fetal bovine serum (FBS), 1% (v/v) penicillin/ streptomycin (pen-strep) and 2 mM L-glutamine.
# The HeLa (human epitheloid cervix carcinoma) cell line was obtained from Prof. Thorfinnur Gunnlaugsson, School of Chemistry TCD. It was maintainedin Dulbecco's Modified Eagle's Medium (DMEM) supplemented with 10% (v/v) fetal bovine serum (FBS) and 1%(v/v) penicillin/ streptomycin (pen-strep).
# The HCT116and HKH-2 (human colon cancer cells) cell lines were obtained from Prof. James Murray, School of Biochemistry and Immunology TCD. They were maintainedin Dulbecco's Modified Eagle's Medium (DMEM) supplemented with 10% (v/v) fetal bovine serum (FBS), 1% (v/v) penicillin/ streptomycin (pen-strep), 1% (v/v) sodium pyruvate (NaPyr), 1% (v/v) L-glutamine (L-Glu) and, only for HKH-2, 0.6 mg/mL geneticine (G418).
# MCF-10A (human breast epithelial) cell line was obtained from Prof. Mary Meegan, School of Pharmacy, TCD. […]
# Cells were counted and seeded in 96 well plates at a density of 2 × 10^5 cells/mL for HL-60, 2.5× 10^4 cells/mL for MCF-7, MCF10A and HeLa, 1 × 10^5 cells/mL for HCT116 and HKH-2, all of them in their respective media. […]
SMILES,IC50 [1] [µM],IC50 [2] [µM]
"Cl.Cl.N=C(N)Nc1ccc(Oc2cccc(NC(=N)Nc3ccc(Cl)c(C(F)(F)F)c3)c2)cn1 [Compound 2, 1-(4-Chloro-3-(trifluoromethyl)phenyl)-3-(3-((6-guanidinopyridin-3-yl)oxy)phenyl) guanidine dihydrochloride]",2.36 ± 0.14,4.87 ± 0.27
"Cl.N=C(N)Nc1ccc(Oc2cccc(Nc3ccc(Cl)c(C(F)(F)F)c3)c2)cc1 [Compound 3, 1-(4-(3-((4-Chloro-3-(trifluoromethyl)phenyl)amino)phenoxy)phenyl)guanidine hydrochloride]",,4.33 ± 0.54
"Cl.N=C(N)Nc1ccc(Oc2cccc(Nc3ccc(Cl)c(C(F)(F)F)c3)c2)cn1 [Compound 4, 1-(5-(3-((4-Chloro-3-(trifluoromethyl)phenyl)amino)phenoxy)pyridin-2-yl)guanidine hydrochloride]",3.48 ± 0.28,1.33 ± 0.08
